Among the data in PubChem BioAssay AID298 (DTP/NCI, 2004) are T/C values, retold here.

Molecules are shown by their SMILES. “And” between values parts separate entries of the source, which are not always exact repeats. Identical values can stand only once. Records with an inconclusive call do not appear.

This test concerns MX-1 breast xenograft, intrarenal, nude mice, tumor weight. In words: NCI In Vivo Anticancer Drug Screen. Data for tumor model Human Mammary Carcinoma MX-1 Xenograft (intrarenal inoculation) in NU/NU BALB/C (nude) mice. Conditions: endpoint: mean tumor weight change, higher = larger tumour. The gist of the method: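 Transplantable tumors established in mice; animals dosed with compound or vehicle; survival or tumor size then recorded. Result reported as treated (T) divided by vehicle control (C).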
(In general: Xenograft models place foreign cells or tissue in a host animal.)

Setting [1] is: dose: 300.0 mg/kg/injection, schedule: Q04DX003 (sc), vehicle: saline with Tween-80.
Setting [2] is: dose: 600.0 mg/kg/injection, schedule: Q04DX003 (sc), vehicle: saline with Tween-80.
[3] abbreviates: dose: 1200.0 mg/kg/injection, schedule: Q04DX003 (sc), vehicle: saline with Tween-80.
[4] abbreviates: dose: 2400.0 mg/kg/injection, schedule: Q04DX003 (sc), vehicle: saline with Tween-80.
[5] abbreviates: dose: 150.0 mg/kg/injection, schedule: Q04DX003 (ip), vehicle: saline with Tween-80.
The mark [6] stands for this setting: dose: 150.0 mg/kg/injection, schedule: Q04DX003 (ip), vehicle: other.
The mark [7] stands for this setting: dose: 300.0 mg/kg/injection, schedule: Q04DX003 (ip), vehicle: other.

Regarding `C[C@]12CC[C@H](O)CC1=CC[C@@H]1[C@@H]2CC[C@]2(C)C(=O)CC[C@@H]12`, the T/C under setting [1] was 77 % of control, the T/C under setting [2] is 76 % of control, the T/C under setting [3] was 63 % of control and the T/C under setting [4] is 68 % of control.
Turning to `Cc1cccc(OCC(O)CN2CC2)c1` (stereo unspecified), the T/C (dose: 50.0 mg/kg/injection, schedule: Q04DX003 (ip), vehicle: saline with Tween-80) was 63 % of control and the T/C (dose: 100.0 mg/kg/injection, schedule: Q04DX003 (ip), vehicle: saline with Tween-80) is 62 % of control.
Take `Cc1nn(CCO)c(C)c1N=[N+]([O-])c1c(C)nn(CCO)c1C`: the T/C runs as follows: (dose: 300.0 mg/kg/injection, schedule: Q04DX003 (sc), vehicle: Klucel (hydroxypropylcellulose) (HPC)) 109 % of control; (dose: 600.0 mg/kg/injection, schedule: Q04DX003 (sc), vehicle: Klucel (hydroxypropylcellulose) (HPC)) 85 % of control; (dose: 1200.0 mg/kg/injection, schedule: Q04DX003 (sc), vehicle: Klucel (hydroxypropylcellulose) (HPC)) 102 % of control; (dose: 2400.0 mg/kg/injection, schedule: Q04DX003 (sc), vehicle: Klucel (hydroxypropylcellulose) (HPC)) 90 % of control.
Take `CCCC1CCC(=C2C(=O)CCC2=O)O1` (stereo unspecified): under setting [5], the T/C is 68 % of control.
Consider `NC(=S)N/N=C/c1cc(=O)c2cc(Cl)ccc2o1`, for which the T/C is, setting by setting: under setting [6], 117 % of control; under setting [7], 103 % of control; (dose: 600.0 mg/kg/injection, schedule: Q04DX003 (ip), vehicle: other) 117 % of control; (dose: 1200.0 mg/kg/injection, schedule: Q04DX003 (ip), vehicle: other) 106 % of control.
Take `Cc1noc2nc(-c3ccccc3)cc(N3CCN(C)CC3)c12`: the T/C is 83 % of control (dose: 75.0 mg/kg/injection, schedule: Q04DX003 (ip), vehicle: other); 120 % of control under setting [6]; 92 % of control under setting [7].
For the molecule `COc1ccc(N=N/N=c2\sc3cc(OC)ccc3n2C)cc1`, the T/C by setting is: (dose: 30.0 mg/kg/injection, schedule: Q04DX003 (ip), vehicle: saline with Tween-80) 68 % of control; (dose: 60.0 mg/kg/injection, schedule: Q04DX003 (ip), vehicle: saline with Tween-80) 87 % of control; (dose: 120.0 mg/kg/injection, schedule: Q04DX003 (ip), vehicle: saline with Tween-80) 65 % of control; (dose: 240.0 mg/kg/injection, schedule: Q04DX003 (ip), vehicle: saline with Tween-80) 62 % of control.
Consider `Oc1ccc(/C=N/Nc2nnc(N/N=C/c3ccc(O)cc3O)c3ccccc23)c(O)c1`, for which the T/C was 50 % of control (dose: 25.0 mg/kg/injection, schedule: Q04DX003 (ip), vehicle: suspension in saline); 102 % of control (dose: 50.0 mg/kg/injection, schedule: Q04DX003 (ip), vehicle: suspension in saline); 115 % of control (dose: 100.0 mg/kg/injection, schedule: Q04DX003 (ip), vehicle: suspension in saline).
As to `CN(Cc1cnc2nc(N)nc(N)c2n1)c1ccc(C(=O)NC(CCC(=O)OCc2cc3c(cc2Cl)OCO3)C(=O)OCc2cc3c(cc2Cl)OCO3)cc1` (stereo unspecified), for the setting “dose: 7.5 mg/kg/injection, schedule: Q04DX003 (ip), vehicle: saline with Tween-80”, the T/C was 75 % of control.
Turning to `NC(CCl)=NCC12CC3CC(CC(C3)C1)C2`, the T/C reads like this: (dose: 37.5 mg/kg/injection, schedule: Q04DX003 (sc), vehicle: Klucel (hydroxypropylcellulose) (HPC)) 102 % of control; (dose: 75.0 mg/kg/injection, schedule: Q04DX003 (sc), vehicle: Klucel (hydroxypropylcellulose) (HPC)) 104 % of control.
Turning to `CC#CCOCC(O)CCl` (stereo unspecified), the T/C reads like this: (dose: 150.0 mg/kg/injection, schedule: Q04DX003 (ip), vehicle: suspension in saline) 91 % of control and 97 % of control; (dose: 300.0 mg/kg/injection, schedule: Q04DX003 (ip), vehicle: suspension in saline) 97 % of control.
Turning to `[N-]=[N+]=CC(=O)CCC(NC(=O)OCc1ccccc1)C(=O)OCc1ccccc1` (stereo unspecified), the T/C is 6 % of control and 23 % of control and 27 % of control (dose: 300.0 mg/kg/injection, schedule: Q04DX003 (ip), vehicle: Klucel (hydroxypropylcellulose) (HPC)); 20 % of control (dose: 450.0 mg/kg/injection, schedule: Q04DX003 (ip), vehicle: Klucel (hydroxypropylcellulose) (HPC)); 6 % of control and 16 % of control (dose: 600.0 mg/kg/injection, schedule: Q04DX003 (ip), vehicle: Klucel (hydroxypropylcellulose) (HPC)); 1 % of control (dose: 900.0 mg/kg/injection, schedule: Q04DX003 (ip), vehicle: Klucel (hydroxypropylcellulose) (HPC)); 22 % of control (dose: 1200.0 mg/kg/injection, schedule: Q04DX003 (ip), vehicle: Klucel (hydroxypropylcellulose) (HPC)).
For the molecule `COc1ccc(Cl)[n+]([O-])n1`, the T/C is 119 % of control (dose: 25.0 mg/kg/injection, schedule: Q04DX003 (sc), vehicle: Klucel (hydroxypropylcellulose) (HPC)); 111 % of control (dose: 50.0 mg/kg/injection, schedule: Q04DX003 (sc), vehicle: Klucel (hydroxypropylcellulose) (HPC)); 106 % of control (dose: 100.0 mg/kg/injection, schedule: Q04DX003 (sc), vehicle: Klucel (hydroxypropylcellulose) (HPC)).
As to `CCC(NC(N)=O)C(CC)NC(N)=O` (stereo unspecified), the T/C is 89 % of control (dose: 6.25 mg/kg/injection, schedule: Q04DX003 (ip), vehicle: saline with Tween-80); 78 % of control (dose: 12.5 mg/kg/injection, schedule: Q04DX003 (ip), vehicle: saline with Tween-80); 74 % of control (dose: 25.0 mg/kg/injection, schedule: Q04DX003 (ip), vehicle: saline with Tween-80).
As to `CCN(CC)c1cc(C(=O)O)cc(N(CC)CC)n1`, the T/C is 155 % of control (dose: 50.0 mg/kg/injection, schedule: Q04DX003 (ip), vehicle: other) and 74 % of control (dose: 100.0 mg/kg/injection, schedule: Q04DX003 (ip), vehicle: other).
Regarding `CC(=O)OCN(C)C=O`, the T/C is, setting by setting: (dose: 300.0 mg/kg/injection, schedule: Q01DX010 (ip), vehicle: suspension in saline) 105 % of control; (dose: 600.0 mg/kg/injection, schedule: Q01DX010 (ip), vehicle: suspension in saline) 75 % of control; (dose: 600.0 mg/kg/injection, schedule: Q01DX010 (sc), vehicle: saline) 88 % of control; (dose: 1200.0 mg/kg/injection, schedule: Q01DX010 (sc), vehicle: saline) 104 % of control; (dose: 2400.0 mg/kg/injection, schedule: Q01DX010 (sc), vehicle: saline) 78 % of control.
In the case of `O=CC(NC(=O)N(CCCl)N=O)C(O)C(O)C(O)CO` (stereo unspecified), the T/C was 59 % of control (dose: 3.0 mg/kg/injection, schedule: Q01DX010 (sc), vehicle: Klucel (hydroxypropylcellulose) (HPC)) and 51 % of control (dose: 6.0 mg/kg/injection, schedule: Q01DX010 (sc), vehicle: Klucel (hydroxypropylcellulose) (HPC)).
On to `S=c1sc2ccccc2n1CN1CCOCC1`, for which the T/C (dose: 75.0 mg/kg/injection, schedule: Q04DX003 (ip), vehicle: saline with Tween-80) was 77 % of control and 84 % of control; the T/C under setting [5] was 110 % of control and 115 % of control; the T/C (dose: 300.0 mg/kg/injection, schedule: Q04DX003 (ip), vehicle: saline with Tween-80) is 79 % of control and 90 % of control; the T/C (dose: 600.0 mg/kg/injection, schedule: Q04DX003 (ip), vehicle: saline with Tween-80) is 67 % of control and 82 % of control.
Regarding `COC(=O)CC(N)C(=O)O` (stereo unspecified), the T/C under setting [1] was 78 % of control, the T/C under setting [2] is 121 % of control, the T/C under setting [3] was 99 % of control and the T/C under setting [4] was 101 % of control.
As to `CC(/C=C/C=C/C=C/C=C/C=C/C(O)=C1/C(=O)C(CCC(=O)O)N(C)C1=O)=C\C(C)C(OC1CC(O)C(O)C(C)O1)C(C)C` (stereo unspecified), the T/C by setting is: (dose: 8.0 mg/kg/injection, schedule: Q04DX003 (ip), vehicle: water) 62 % of control; (dose: 15.88 mg/kg/injection, schedule: Q04DX003 (ip), vehicle: water) 115 % of control; (dose: 16.0 mg/kg/injection, schedule: Q04DX003 (ip), vehicle: water) 57 % of control; (dose: 31.75 mg/kg/injection, schedule: Q04DX003 (ip), vehicle: water) 97 % of control; (dose: 32.0 mg/kg/injection, schedule: Q04DX003 (ip), vehicle: water) 95 % of control; (dose: 62.5 mg/kg/injection, schedule: Q04DX003 (ip), vehicle: water) 63 % of control. Moreover, the T/C was 58 % of control (dose: 64.0 mg/kg/injection, schedule: Q04DX003 (ip), vehicle: water) and 50 % of control (dose: 125.0 mg/kg/injection, schedule: Q04DX003 (ip), vehicle: water).
